In PubChem BioAssay AID2305 (GlaxoSmithKline (GSK), 2010):

Test system: P. falciparum 3D7 growth, pLDH absorbance
Test: blood-stage malaria parasite growth potency – strain 3D7, dose response (AID 2305)

Compound `COc1cc2nc(N3CCC(CNC(=O)c4ccc(OC(F)(F)F)cc4)CC3)nc(N)c2cc1OC` has an IC50 of 220 nM.
`CNC(=O)Cc1ccc(C(=O)Nc2cccc(-c3cccc(-c4nc5ccc(C(F)(F)F)cc5[nH]4)c3)c2)cc1` gave an IC50 of 440 nM.
In the case of `CN1CCN(c2ccc3nccc(CCN4CCC(NCc5ccc6c(n5)NC(=O)CO6)CC4)c3n2)CC1`, the IC50 is reported as 820 nM.
`O=S(=O)(/C=C/c1ccccc1)N(Cc1ccc(-c2ccc(CNCCOc3ccccc3)cc2)cc1)CC1CCCCN1` (stereo unspecified) showed an IC50 of 740 nM.
`COc1ccc(C(=O)CCC(=O)N(Cc2ccc(-c3ccc(CNCCc4ccc(S(C)(=O)=O)cc4)cn3)cc2)C(C)CN(C)C)cc1F` (stereo unspecified) was tested, and the IC50 was 650 nM.
`CC(C)(C(=O)NCCC1CCN(CCCCCNC(=O)/C=C/c2ccc(Cl)c(Cl)c2)CC1)c1ccc(Cl)cc1` was tested, and the IC50 was 1280 nM.
For `Cc1cccc2c(C(=O)NC3CCN(Cc4ccccc4)CC3)cc(-c3cccnc3)nc12`, the IC50 was 1380 nM.
With `Cc1[nH]c2ccccc2c(=O)c1[N+](=O)[O-]` the IC50 was 1110 nM.
For `Cc1cc(CNCCCCCCNCc2ccc(-c3ccccc3)cc2)ccc1O`, the IC50 was 900 nM.
With `CC(C)(C)c1ccc(CN2CCC(CNC(=O)c3cc(-c4ccccc4C(F)(F)F)cs3)C2)cc1` (stereo unspecified) the IC50 was 1240 nM.
`CC(C)CC(C)NC(=O)C1Cc2c([nH]c3ccc(F)cc23)C2(CCN(Cc3ccccc3)CC2)N1` (stereo unspecified) was tested, and the IC50 was 970 nM.
`Cc1c(Cn2ncc(N3C[C@@H](C)N[C@@H](C)C3)c(Cl)c2=O)cccc1NC(=O)Nc1ccc(-c2ccccc2)cc1` gave an IC50 of 600 nM.
`Cc1cccc(CN2CCC(Oc3ccc(NC(=O)c4cccs4)cc3Cl)CC2)n1` gave an IC50 of 840 nM.
With `COc1ccc(S(=O)(=O)NC2CCN(CCCOc3ccnc4cc(Cl)ccc34)C2)cc1OC` (stereo unspecified) the IC50 was 1050 nM.
`CN1CCN(c2nsc3ccc(-c4ccc(NC(=O)Nc5cc(C(F)(F)F)ccc5F)cc4)cc23)CC1` gave an IC50 of 240 nM.
With `O=C(c1ccc(F)cc1)N1CCOC(CCN2CCC(c3ccccc3)CC2)(c2ccc(Cl)c(Cl)c2)C1` (stereo unspecified) the IC50 was 750 nM.
Work on `O=C(Nc1ccc(-c2nc3ccccc3[nH]2)cc1)c1ccc(N2CCCC2)c([N+](=O)[O-])c1` yielded an IC50 of 680 nM.
With `COc1ccc2c(NN=Cc3c(OC)ccc4ccccc34)cc(C)nc2c1` the IC50 was 780 nM.
In the case of `O=C(Nc1ccc(-c2nc3ccccc3[nH]2)cc1)c1ccc(-c2cccc([N+](=O)[O-])c2)o1`, the IC50 is reported as 270 nM.
Work on `Cc1cccc2[nH]c(-c3ccc(-c4cccc(CN5CCCC(N)C5)c4)s3)nc12` (stereo unspecified) yielded an IC50 of 540 nM.
For `COc1cccc(-c2ccc3c(-c4cccc(NC(C)=O)c4)cnc(N)c3c2)c1`, the IC50 was 110 nM.
Compound `N#Cc1ccc(NC(=NC2CCN(Cc3ccccc3)CC2)Nc2ccccc2Cl)c(O)c1` has an IC50 of 300 nM.
`O=C(NCCCCCN1CCC(c2c[nH]c3ccccc23)CC1)Nc1cccc(C(F)(F)F)c1` gave an IC50 of 1000 nM.
Compound `COc1ccc2c(NN=Cc3ccccn3)ccnc2c1` has an IC50 of 370 nM.
With `COc1ccc2ncc(Cl)c(NCC3(O)CCC(NCc4ccc5c(n4)NC(=O)CS5)CC3)c2n1` (stereo unspecified) the IC50 was 600 nM.
Work on `CCOC(=O)c1c(CNc2ccncc2)n(C)c2cc(Br)c(OC(C)=O)cc12` yielded an IC50 of 370 nM.
`O=C(NCC1CC1)C1CCN(C(c2ccccc2)c2ccc(Cl)c(Cl)c2)CC1` (stereo unspecified) showed an IC50 of 370 nM.
`C=CC[C@H](C[C@H](O)[C@H](Cc1ccccc1)NC(=O)c1ccc(-n2cccn2)cc1)C(=O)NC1CCCCC1` gave an IC50 of 810 nM.
Compound `CN1CCN(c2ccnc3ccc(NC(=O)Nc4c(Cl)cccc4Cl)cc23)CC1` has an IC50 of 880 nM.
With `O=C(C=Cc1ccc(Cl)c(Cl)c1)NCCCCCN1CCC(CCCNS(=O)(=O)c2cccc(C(F)(F)F)c2)CC1` the IC50 was 480 nM.
Compound `O=C(/C=C/c1ccc(Cl)c(Cl)c1)NCCCCCN1CCC(NC(=O)Nc2cc(Cl)nc(Cl)c2)CC1` has an IC50 of 980 nM.
For `Cc1ccc(NC(=O)c2ccc(Cl)cc2)cc1-c1ccc(C(=O)Nc2ccncc2)cc1`, the IC50 was 780 nM.
With `CCOc1cc(C(=O)N[C@@H](Cc2ccccc2)[C@H](O)CNCc2cccc(OC)c2)cc(N2CCCCS2(=O)=O)c1` the IC50 was 720 nM.
`CC[C@H]1CN(Cc2ccco2)CC[C@H]1CCCc1ccnc2ccc(O)cc12` was tested, and the IC50 was 1270 nM.
`Cc1ccccc1C(=O)NC(NC(=S)Nc1ccc([N+](=O)[O-])cc1)C(Cl)(Cl)Cl` (stereo unspecified) was tested, and the IC50 was 740 nM.
For `Cc1ccc(-c2cc(C(=O)Nc3ccc(S(=O)(=O)N4CCOCC4)cc3)[nH]n2)c(O)c1C`, the IC50 was 920 nM.
`N=C(N)c1cccc(OCCCOc2cccc(NC(=O)Nc3ccc([N+](=O)[O-])cc3)c2)c1` gave an IC50 of 860 nM.
`CCOc1cc(C(=O)Nc2ccc(-c3nc4ccccc4[nH]3)cc2)cc(OCC)c1OCC` gave an IC50 of 230 nM.
`CCNc1cc(C(=O)N[C@@H](Cc2ccccc2)[C@H](O)CNC(C)CC(C)C)c(F)c(N2CCCCS2(=O)=O)c1` (stereo partly specified) showed an IC50 of 1120 nM.
Compound `Cc1cc(N2CCC(N(C)C)C2)nc(Nc2ccc(Cl)cc2)n1` (stereo unspecified) has an IC50 of 520 nM.
`CCCC(C)N(Cc1ccc(C(C)(C)C)cc1)C(=O)c1ccc(OC)cc1` (stereo unspecified) was tested, and the IC50 was 110 nM.
Compound `COC(=O)c1cccc(CNCc2cccc(-c3cccc(-c4nc5ccc(F)cc5[nH]4)c3)c2)c1` has an IC50 of 130 nM.
Compound `N#Cc1cncc(-c2nc3c(N4CCC(N5CCCC5)CC4)cccc3n2CCNCc2ccccc2)c1` has an IC50 of 870 nM.
Compound `S=C(Nc1ccccc1Cl)NC1CCC(CN2CCC(c3c[nH]c4ccccc34)CC2)CC1` (stereo unspecified) has an IC50 of 1050 nM.
`NC(=O)c1ccc(NC(=O)CN(Cc2ccc(Cl)cc2)S(=O)(=O)c2ccccc2)cc1` was tested, and the IC50 was 650 nM.
`O=C(NCC1COc2ccccc2O1)c1cnc2c(c1)nc(-c1cnc(-c3ccccc3)[nH]1)n2CCSCc1c(F)cccc1Cl` (stereo unspecified) showed an IC50 of 960 nM.
In the case of `Cc1ccn2cc(-c3ccc(NC(=O)c4ccc(Br)o4)cc3)nc2c1`, the IC50 is reported as 740 nM.
Work on `CC(C)CCNc1nc2ccccc2nc1Nc1cccc(C(F)(F)F)c1` yielded an IC50 of 910 nM.
Work on `COc1ccc(Cl)cc1N1CCN(CCCNC(=O)c2ccc(-c3nc4cc(Cl)c(F)cc4[nH]3)c(F)c2)CC1` yielded an IC50 of 1110 nM.
`Cc1c(N)ccc2[nH]c(-c3ccc(N)cc3)nc12` gave an IC50 of 1210 nM.
`CN(Cc1cccc(C#N)c1)C1CCN(c2cc(NC(=O)c3cccc(F)c3)ccn2)CC1` was tested, and the IC50 was 930 nM.
Compound `O=C(C=Cc1ccc(F)cc1)N1CCN(S(=O)(=O)c2ccc(Cl)cc2)CC1` has an IC50 of 630 nM.
`CC(C)c1cccc(C(NC(=O)[C@H]2Cc3ccccc3CN2C(=O)c2cccc(N3CCOCC3)c2)C2CCCC2)c1` (stereo partly specified) gave an IC50 of 720 nM.
Compound `COc1ccc(NC(=O)/C=C/c2ccccc2Cl)cc1OCCN1CCC(O)(c2ccc(Cl)c(C(F)(F)F)c2)CC1` has an IC50 of 640 nM.
`O=C1C([N+](=O)[O-])=C(O)c2cccc(F)c21` was tested, and the IC50 was 150 nM.
`CCCCCCNC(=O)C1Cc2c([nH]c3ccc(Br)cc23)C2(CCN(Cc3ccccc3)CC2)N1` (stereo unspecified) showed an IC50 of 720 nM.
`N#Cc1ccc2c(c1)CCN(CCC1CCC(NC(=O)/C=C/c3c[nH]c4c(Br)cccc34)CC1)CC2` (stereo unspecified) was tested, and the IC50 was 380 nM.
Work on `CCc1cn2c3c(cc(C(=O)N[C@@H](Cc4cccc(Cl)c4)[C@H](O)CNC4CCCCC4)cc13)N(C)S(=O)(=O)CC2` yielded an IC50 of 60 nM.
For `COc1cc2nc(N3CCC(CNC(=O)c4ccc(-c5ccc(C(=O)N(C)C)cc5C)cc4)CC3)nc(N3CCN(C)CC3)c2cc1OC`, the IC50 was 1230 nM.
In the case of `CC(C)(C)c1ccc(-c2cc3c(ccc4nc(N)nc(N)c43)[nH]2)cc1`, the IC50 is reported as 110 nM.
Work on `c1cc(CN2CCC(CCN3CCCCC3)CC2)cc(-c2csc(-c3nc4ccccc4[nH]3)c2)c1` yielded an IC50 of 140 nM.
In the case of `COC(=O)c1ccc(CC(C)NCC(O)c2cccc(SC(F)(F)F)c2)cc1` (stereo unspecified), the IC50 is reported as 890 nM.
Work on `CN(C)CCNCc1ccc(-c2ccc3c(Nc4ccc(Cl)cc4F)ccnc3c2)o1` yielded an IC50 of 210 nM.
Compound `N#Cc1ccc(N(CCOC(=O)c2ccc(Br)s2)Cc2ccccc2C(F)(F)F)cc1C(F)(F)F` has an IC50 of 1070 nM.
`CNC(=O)Cc1ccc(C(=O)Nc2cccc(-c3cccc(-c4nc5c(C)cccc5[nH]4)c3)c2)cc1` showed an IC50 of 530 nM.
With `c1cc(CN2CCN(c3ccncc3)CC2)cc(-c2ccc(-c3nc4ccccc4[nH]3)cc2)c1` the IC50 was 150 nM.
